Structures can show the parent of a compound that is named as a salt.
Biological target: Avi-humanTEAD4 217-434 / Cy5 labeled humanYAP 60-100 (Homo sapiens (Human), UniProt Q15561)
Experiment: TR-FRET YAP-TEAD4 in-vitro biochemical assay
Type: binding
Details: 1 nM Avi-humanTEAD4 217-434, 20 nM Cy5-humanYAP 60-100, 1 h room temperature
Experimental: N-terminus Cy5 labeled humanYAP^60-100 (20 nM) was then added to this preparation. Compounds were dissolved at 10 mM in 100% DMSO and serial dilutions were made in 100% DMSO. The diluted compound solutions were incubated in white 384-well plates (Greiner Bio-One) for 1 h at room temperature with the above described mix. The final DMSO concentration present in the assay was 1%. […] The IC50 values were estimated by fitting the data by nonlinear fit regression (GraphPad Prism).

Sequence of Avi-humanTEAD4 217-434 / Cy5 labeled humanYAP 60-100 (Q15561 217-434): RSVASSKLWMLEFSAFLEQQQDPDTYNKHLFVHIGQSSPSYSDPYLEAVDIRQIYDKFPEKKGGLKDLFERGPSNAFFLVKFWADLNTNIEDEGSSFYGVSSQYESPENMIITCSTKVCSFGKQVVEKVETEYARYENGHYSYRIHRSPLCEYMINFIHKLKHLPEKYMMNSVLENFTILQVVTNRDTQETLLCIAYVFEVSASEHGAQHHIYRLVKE

IC50 | Compound
6 nM | COC(=O)[C@H]1CC[C@H](NC[C@@]2(c3ccccc3)Cc3c(ccc(Cl)c3-c3c(C(N)=O)ccc(F)c3F)O2)CC1 (relative stereo) [Example 137b, methyl (trans)-4-((((2S,4S)-4-(6-carbamoyl-2,3-difluorophenyl)-5-chloro-2-phenyl-2,3-dihydrobenzofuran-2-yl)methyl)amino)cyclohexane-1-carboxylate]
10 nM | NC[C@@]1(c2ccccc2)Cc2c(cc(F)c(Cl)c2-c2c(C(N)=O)ccc(OC(F)(F)CO)c2F)O1 (atropisomer, axis not shown) [Example 36, 2-((2S,4S)-2-(aminomethyl)-5-chloro-6-fluoro-2-phenyl-2,3-dihydrobenzofuran-4-yl)-4-(1,1-difluoro-2-hydroxyethoxy)-3-fluorobenzamide]
2 nM | C[C@H]1c2c(cc(F)c(Cl)c2-c2c(C(N)=O)ccc(OC(F)F)c2F)O[C@]1(CN[C@H]1CC[C@H](O)CC1)c1ccccc1 (atropisomer, axis not shown) [Example 115a, 2-((2S,3S,4S)-5-chloro-6-fluoro-2-((((trans)-4-hydroxycyclohexyl)amino)methyl)-3-methyl-2-phenyl-2,3-dihydrobenzofuran-4-yl)-4-(difluoromethoxy)-3-fluorobenzamide]
6 nM | NC[C@@]1(c2ccccc2)Cc2c(ccc(Cl)c2-c2c(C(N)=O)ccc(OCC(=O)O)c2F)O1 (atropisomer, axis not shown) [Example 16, 2-(3-((2S,4S)-2-(aminomethyl)-5-chloro-2-phenyl-2,3-dihydrobenzofuran-4-yl)-4-carbamoyl-2-fluorophenoxy)acetic acid trifluoroacetate salt]
455 nM | C[C@@H]1C[C@@H](NC[C@@]2(c3ccccc3)Cc3c(cc(F)c(Cl)c3-c3c(C(N)=O)ccc(OCCO)c3F)O2)C[C@H](C)O1 (atropisomer, axis not shown) [Example 65b, 2-((2S,4S)-5-chloro-2-((((2R,4s,6S)-2,6-dimethyltetrahydro-2H-pyran-4-yl)amino)methyl)-6-fluoro-2-phenyl-2,3-dihydrobenzofuran-4-yl)-3-fluoro-4-(2-hydroxyethoxy)benzamide]
695 nM | NCC1(c2ccccc2)Oc2ccc(Cl)c(-c3c(F)cccc3C(N)=O)c2O1 (single isomer, unassigned) [Example 133, 2-(2-(Aminomethyl)-5-chloro-2-phenylbenzo[d][1,3]dioxol-4-yl)-3-fluorobenzamide]
4 nM | CNC[C@]1(c2ccccn2)Oc2cc(F)c(Cl)c(-c3c(C(N)=O)ccc(OCCOC)c3F)c2[C@@H]1C (atropisomer, axis not shown) [Example 111, 2-((2R,3S,4S)-5-chloro-6-fluoro-3-methyl-2-((methylamino)methyl)-2-(pyridin-2-yl)-2,3-dihydrobenzofuran-4-yl)-3-fluoro-4-(2-methoxyethoxy)benzamide]
1 nM | C[C@]1(O)CC[C@@H](NC[C@@]2(c3ccccc3)Cc3c(cc(F)c(Cl)c3-c3c(C(N)=O)ccc(OCc4ncccn4)c3F)O2)CC1 (atropisomer, axis not shown) [Example 71b, 2-((2S,4S)-5-chloro-6-fluoro-2-((((cis)-4-hydroxy-4-methylcyclohexyl)amino)methyl)-2-phenyl-2,3-dihydrobenzofuran-4-yl)-3-fluoro-4-(pyrimidin-2-ylmethoxy)benzamide]
< 1 nM | NC(=O)c1ccc(OC(F)F)c(F)c1-c1c(Cl)c(F)cc2c1C[C@@](CNC1CCC(O)(CF)CC1)(c1ccccc1)O2 (single isomer, unassigned) [Example 55a]
2 nM | COc1ncc(C(N)=O)c(-c2c(Cl)c(F)cc3c2C[C@@](CN[C@H]2CC[C@@](C)(O)CC2)(c2ccccc2)O3)c1F (atropisomer, axis not shown) [Example 66b, 4-((2S,4S)-5-chloro-6-fluoro-2-((((cis)-4-hydroxy-4-methylcyclohexyl)amino)methyl)-2-phenyl-2,3-dihydrobenzofuran-4-yl)-5-fluoro-6-methoxynicotinamide]
4 nM | C[C@@H]1C[C@H](NC[C@@]2(c3ccccc3)Cc3c(cc(F)c(Cl)c3-c3c(C(N)=O)ccc(OCCO)c3F)O2)C[C@H](C)O1 (atropisomer, axis not shown) [Example 65a, 2-((2S,4S)-5-chloro-2-((((2R,4r,6S)-2,6-dimethyltetrahydro-2H-pyran-4-yl)amino)methyl)-6-fluoro-2-phenyl-2,3-dihydrobenzofuran-4-yl)-3-fluoro-4-(2-hydroxyethoxy)benzamide]
4 nM | NC[C@@]1(c2ccccc2)Cc2c(ccc(Cl)c2-c2c(C(N)=O)ccc(Cl)c2F)O1 (atropisomer, axis not shown) [Example 8, 2-((2S,4S)-2-(aminomethyl)-5-chloro-2-phenyl-2,3-dihydrobenzofuran-4-yl)-4-chloro-3-fluorobenzamide]
10 nM | CCc1ccc(C(N)=O)c(-c2c(Cl)c(F)cc3c2C[C@@](CN[C@H]2CC[C@](C)(O)CC2)(c2ccccc2)O3)c1F (atropisomer, axis not shown) [Example 68a, 2-((2S,4S)-5-chloro-6-fluoro-2-((((trans)-4-hydroxy-4-methylcyclohexyl)amino)methyl)-2-phenyl-2,3-dihydrobenzofuran-4-yl)-4-ethyl-3-fluorobenzamide]
7 nM | NC(=O)c1ccc(OC(F)F)c(F)c1-c1c(Cl)c(F)cc2c1C[C@@](CNC1CC3(CC(O)C3)C1)(c1ccccc1)O2 (single isomer, unassigned) [Example 85b]
20 nM | CC(=O)N1CCC(NC[C@@]2(c3ccccc3)Cc3c(cc(F)c(Cl)c3-c3c(C(N)=O)ccc(OC(F)F)c3F)O2)CC1 (atropisomer, axis not shown) [Example 70, 2-((2S,4S)-2-(((1-acetylpiperidin-4-yl)amino)methyl)-5-chloro-6-fluoro-2-phenyl-2,3-dihydrobenzofuran-4-yl)-4-(difluoromethoxy)-3-fluorobenzamide]
10 nM | CNC(=O)c1cnc(OCCO)c(F)c1-c1c(Cl)c(F)cc2c1C[C@@](CN)(c1ccccc1)O2 (atropisomer, axis not shown) [Example 45, 4-((2S,4S)-2-(Aminomethyl)-5-chloro-6-fluoro-2-phenyl-2,3-dihydrobenzofuran-4-yl)-5-fluoro-6-(2-hydroxyethoxy)-N-methylnicotinamide]
797 nM | N#Cc1ccc2c(c1-c1ccccc1)C[C@@](CN[C@H]1CC[C@H](O)CC1)(c1ccccc1)O2 [Example 130, (S)-2-((((trans)-4-Hydroxycyclohexyl)amino)methyl)-2,4-diphenyl-2,3-dihydrobenzofuran-5-carbonitrile]
130 nM | COc1ccc(C(N)=O)c(-c2c(Cl)c(F)cc3c2C[C@](c2ccccc2)(C2COCCN2)O3)c1F (single isomer, unassigned) [Example 163]
2 nM | C[C@]1(O)CC[C@@H](NC[C@@]2(c3ccccc3)Cc3c(cc(F)c(Cl)c3-c3c(C(N)=O)ccc(OC[C@H]4CCCO4)c3F)O2)CC1 (atropisomer, axis not shown) [Example 67a, 2-((2S,4S)-5-chloro-6-fluoro-2-((((cis)-4-hydroxy-4-methylcyclohexyl)amino)methyl)-2-phenyl-2,3-dihydrobenzofuran-4-yl)-3-fluoro-4-(((R)-tetrahydrofuran-2-yl)methoxy)benzamide]
7 nM | COc1ccc(C(N)=O)c(-c2c(Cl)ccc3c2[C@H](O)[C@@](CN[C@H]2CC[C@@H](O)CC2)(c2ccccn2)O3)c1F (relative stereo) [Example 95b, 2-((2R,3S,4S)-5-chloro-3-hydroxy-2-((((cis)-4-hydroxycyclohexyl)amino)methyl)-2-(pyridin-2-yl)-2,3-dihydrobenzofuran-4-yl)-3-fluoro-4-methoxybenzamide]
5 nM | NC(=O)c1ccc(OC(F)F)c(F)c1-c1c(Cl)c(F)cc2c1[C@H](O)[C@@](CN[C@H]1CC[C@@H](O)CC1)(c1ccccc1)O2 (relative stereo) [Example 100b, 2-((2S,3S,4S)-5-chloro-6-fluoro-3-hydroxy-2-((((cis)-4-hydroxycyclohexyl)amino)methyl)-2-phenyl-2,3-dihydrobenzofuran-4-yl)-4-(difluoromethoxy)-3-fluorobenzamide]
22 nM | COc1ccc(C(N)=O)c(-c2c(Cl)ccc3c2[C@H](O)[C@@](CN)(c2ccc[nH]c2=O)O3)c1F (atropisomer, axis not shown) [Example 92, 2-((2S,3S,4S)-2-(Aminomethyl)-5-chloro-3-hydroxy-2-(2-oxo-1,2-dihydropyridin-3-yl)-2,3-dihydrobenzofuran-4-yl)-3-fluoro-4-methoxybenzamide]
11 nM | CNC(=O)c1cnc(OCC(=O)O)c(F)c1-c1c(Cl)c(F)cc2c1C[C@](c1ccccc1)([C@@H]1CCCN1)O2 [Example 156, 2-((4-((2S,4S)-5-Chloro-6-fluoro-2-phenyl-2-((S)-pyrrolidin-2-yl)-2,3-dihydrobenzofuran-4-yl)-3-fluoro-5-(methylcarbamoyl)pyridin-2-yl)oxy)acetic acid]
3 nM | NC[C@@]1(c2ccccc2)Cc2c(ccc(Cl)c2-c2c(C(N)=O)cnc(OC(F)F)c2F)O1 (atropisomer, axis not shown) [Example 19, 4-((2S,4S)-2-(Aminomethyl)-5-chloro-2-phenyl-2,3-dihydrobenzofuran-4-yl)-6-(difluoromethoxy)-5-fluoronicotinamide]
2080 nM | COc1ccc(C(N)=O)c(-c2c(Cl)ccc3c2OC(CN)(c2ccccc2)C3)c1F (single isomer, unassigned) [Example 132, 2-(2-(Aminomethyl)-6-chloro-2-phenyl-2,3-dihydrobenzofuran-7-yl)-3-fluoro-4-methoxybenzamide]

Reference: patent US12083101B2, “Biaryl derivatives as YAP/TAZ-TEAD protein-protein interaction inhibitors” (Novartis AG, priority 2020, dated 2024)
